Marks after values point to notes of the source that are not given here.
Assays:
[1] = Acute toxicity / tolerated dose in healthy mice; format: in vivo, mouse; parameters: weight of experimental animals: unit not given here; settings: for animals in the group alive: 24 days
Description: To this end, the effects of the agent according to the invention on the basic physiological functions of healthy animals were studied. 70 male Cs7Bl/6J mice at the age of 7-8 weeks, weighing 18-23 g were used in the experiment. The animals were taken from R. E. Kavetsky IEPOR NASU Vivarium. Before the experiment, all the animals were healthy, with normal behavioral performance. During the experiment, the animals were kept in plastic cages under natural light illumination, on a standard diet with free access to food and water.
Clinical observations were carried out by daily examination of all animals kept in cages to identify mortality or any signs of a deviation in health status. […] All deviations were recorded. The size of the tumors was measured every 2 days (3 times a week) after the apparent onset of ascites/tumor node growth (at day 8 after the inoculation of tumor cells). Dying animals were euthanized, weighed and necropsied. The decision to euthanize such animals was taken jointly with the research supervisor and veterinarian. The animals were subjected to complete necrosis, which included examination of the external surface of the body, all passages, cranial, thoracic, abdominal cavities and their contents.
In the experiment, the animals were administered the solution comprising ^64Zne aspartate intraperitoneally at doses of 120 μg/mouse, 80 μg/mouse, 50 μg/mouse and 25 μg/mouse, and intravenously at doses of 50 μg/mouse, 25 gig/mouse and 12.5 μg/mouse. The agent was dissolved in deuterium-depleted water and injected 7 times every other day for 14 days in a volume of 0.5 ml/mouse for intraperitoneal injection and in a volume of 0.2 ml for intravenous injection with the agent. In order to determine the maximum tolerated dose of ^64Zne aspartate included in the composition of the agent according to the invention, the laboratory mice were injected with the ^64Zne aspartate solution using a series of injections (7 injections) and different routes of administration (i.p. or i.v.). The animals were observed during 24 days after the first administration of the agent (14 days for a series of injections of the ^64Zne compound and 10 days after the last administration of the agent). The overall health of the animals, state of coat and mucous membranes, their behavior, reflexes, and basic functions of the gastrointestinal tract were evaluated.

[2] = test system: Ehrlich ascites carcinoma (EAC); experiment: Ehrlich ascites carcinoma (EAC) mouse model; format: in vivo
Description: 10 male outbred mice (5 mice per group) at the age of 10 weeks, weighing 19-23 g were used in Ehrlich ascites carcinoma (EAC) model. Before the experiment, all the animals were healthy, with normal behavioral performance. During the experiment, the animals were kept in plastic cages under natural light illumination, on a standard diet with free access to food and water. An ascites strain of mouse breast cancer (EAC) maintained in outbred mice was used in the experiment. To inoculate the strain, the tumor cells derived from the ascitic fluid were placed in saline solution. The suspension cellularity was evaluated in the hemocytometer and adjusted to a concentration of 1×10^6 cells/ml with saline solution. The tumor was transplanted by injecting […] of the tumor cell suspension (0.25×10^6 cells/mouse) into the abdominal cavity of the animals.
The animals were divided into groups as follows: • Group No 1—control group, mice with EAC+solvent (deuterium-depleted water (this water contains deuterium at a level of 10 ppm)); • Group No 2−mice with EAC+^64Zne aspartate.
The solution comprising ^64Zne aspartate was injected intraperitoneally using a microinjection syringe at a dose of 0.075 mg (75 μg)/mouse every other day (5 times during 10 days) starting from the first day after injection in a volume of 0.5 ml/mouse. […] On the 13th day after i.p. inoculation of tumor cells, the whole ascites fluid was recovered from the animals and the total number of live/dead cells in each mouse was determined. Deuterium-depleted water alone was used instead of a solution of ^64Zne aspartate as control in the experiment.
The dynamics of formation of ascites in the control and experimental groups was assessed visually using a 10-point scale (one point was 0.46 cm of the mean diameter of the mouse abdomen filled with ascites).
In addition, on the 13th day after intraperitoneal inoculation of tumor cells, all ascetic fluid was removed from the abdomens in all animals from each group by washing their peritoneal cavities with saline solution and live and dead tumor cells were counted using the traditional vital dye trypan blue (HyClon, USA) and a hemocytometer.
The number of cells was determined using the following formula: X=((a)/80)×10^6, where X is the number of cells in 1 ml and a is the number of cells counted in 80 small squares of the hemocytometer.

[3] = test system: acute promyelocyte leukemia (HL-60 line) cells; experiment: Immunocytochemical analysis (H-Score) of HL-60 cells; format: cell-based, human
Description: Materials and methods for leukemia cell lines HL-60 and Namalva and cell culture conditions will now be described. Initial HL-60 and Namalva cells were cultured in complete RPMI 1640 medium (PAA) (PAA, Austria) supplemented with 10% fetal calf serum (PAA) and incubated in 5% CO2 humidified atmosphere at 37° C. The culture medium was replaced in 2 to 3 days and the cells were passaged in 4 to 5 days.
In carrying out the immunocytochemical (ICC) assay, cells on microscope glasses (cytospin preparations) were fixed in the solution (methanol+acetone (1:1)) for 2 hours at t−20° C. and then incubated with a 1% solution of bovine serum albumin (BSA) for 20 minutes.
After the immunocytochemical reaction, the preparations were rinsed with water and counterstained with hematoxylin and eosin for 15 to 30 seconds. The results were analyzed by a quantitative estimation of cells with the marker expression (increased brown color of cells corresponded to a higher degree of expression of the marker) using a light microscope and assessed using the classical H-Score method: S=1×A+2×B+3×C, where S is the H-Score index the values of which are within the scope of 0 (protein is not detectable) to 300 (high-level expression in 100% of the cells), A is a percentage of weakly stained cells, B is the percentage of moderately stained cells, and C the percentage of strongly stained cells.

[4] = test system: human melanoma tumor cells (MM-4 cell line); experiment: Scratch assay, MM-4 cells; format: cell-based; settings: ^64Zn 15 mcg/ml; 48 hours in control
Description: The cells of A-549, A-431, NRK, HaCaT, MM-4, normal fibroblasts (derived from the Bank of Cell Lines from human and animal tissues, R. E. Kavetsky Institute of Experimental Pathology, Oncology and Radiobiology, National Academy of Sciences of Ukraine) were cultured in complete culture medium RPMI 1640/DMEM (PAA, Austria) (depending on the cell type) supplemented with 10% fetal calf serum (PAA, Austria) and incubated in 5% CO2 humidified atmosphere at 37° C. The culture medium was replaced in 2 to 3 days and the cells were passaged in 4 to 5 days.
Analysis of the influence of the components under study on the cell migration rate was performed using the scratch assay method. […]
The plate was incubated in a CO2 incubator for additional 48 hours. After the cells formed a dense monolayer it was damaged (by making a “scratch”) and the growth medium was replaced to remove cell debris and smooth the edges of the “scratch.” The rate of cell migration was analyzed using an inverted microscope and by photographing cells in the area of injury. The migration activity of cells was fixed at several time points (depending on the cell line analyzed). The microphotomicrographs were analyzed and the cell incubation time needed to restore the monolayer was determined for all experimental groups. […]

## NC(CC(=O)[O-])C(=O)[O-].[64Zn+2] (racemic) [^64Zne aspartate, ^64Zn aspartate (racemic)]
[1]; i.p. 25 μg/mouse x7
  animals in the group alive: 100% of the animals in the group are alive. Locomotor activity is
[1]; i.p. 25 μg/mouse, day 0
  weight of experimental animals: 21.1 ± 0.5
[1]; i.p. 25 μg/mouse, day 2
  weight of experimental animals: 20.1 ± 0.3
[1]; i.p. 25 μg/mouse, day 4
  weight of experimental animals: 18.3 ± 0.7
[1]; i.p. 25 μg/mouse, day 8
  weight of experimental animals: 18.4 ± 1
[1]; i.p. 25 μg/mouse, day 11
  weight of experimental animals: 18.2 ± 0.9
[1]; i.p. 25 μg/mouse, day 15
  weight of experimental animals: 19.2 ± 0.5
[1]; i.p. 25 μg/mouse, day 19
  weight of experimental animals: 19.8 ± 0.4
[1]; i.p. 25 μg/mouse, day 24
  weight of experimental animals: 20.5 ± 0.6
[1]; i.p. 50 μg/mouse x7
  animals in the group alive: 100% of the animals in the group are alive. Locomotor activity is
[1]; i.p. 50 μg/mouse, day 0
  weight of experimental animals: 21.3 ± 0.5
[1]; i.p. 50 μg/mouse, day 2
  weight of experimental animals: 20.4 ± 0.4
[1]; i.p. 50 μg/mouse, day 4
  weight of experimental animals: 19.2 ± 0.6
[1]; i.p. 50 μg/mouse, day 8
  weight of experimental animals: 19.8 ± 0.7
[1]; i.p. 50 μg/mouse, day 11
  weight of experimental animals: 19.5 ± 0.8
[1]; i.p. 50 μg/mouse, day 15
  weight of experimental animals: 19 ± 0.6
[1]; i.p. 50 μg/mouse, day 19
  weight of experimental animals: 19.2 ± 0.7
[1]; i.p. 50 μg/mouse, day 24
  weight of experimental animals: 20 ± 0.5
[1]; i.p. 80 μg/mouse x7
  animals in the group alive: 80% of the animals in the group are alive. Some changes in the
[1]; i.p. 80 μg/mouse, 8th or 10th day
  animals died after 4 or 5 injections: agent. 20% of the animals in the group died after 4 or 5 injections
[1]; i.p. 80 μg/mouse, 18-24 hours after administration
  animals with short-lasting diarrhea: It should be noted that a short-lasting diarrhea was observed in 40%
[1]; i.p. 80 μg/mouse, already on the 4th day after first injection
  body weight loss compared to the control figures: 15-20%
[1]; i.p. 80 μg/mouse, day 0
  weight of experimental animals: 21.4 ± 0.4
[1]; i.p. 80 μg/mouse, day 2
  weight of experimental animals: 20.5 ± 0.5
[1]; i.p. 80 μg/mouse, day 4
  weight of experimental animals: 17.3 ± 0.2
[1]; i.p. 80 μg/mouse, day 8
  weight of experimental animals: 17.5 ± 0.1
[1]; i.p. 80 μg/mouse, day 11
  weight of experimental animals: 17.3 ± 0.1
[1]; i.p. 80 μg/mouse, day 15
  weight of experimental animals: 16.5 ± 0.1
[1]; i.p. 80 μg/mouse, day 19
  weight of experimental animals: 17.2 ± 0.2
[1]; i.p. 80 μg/mouse, day 24
  weight of experimental animals: 17.6 ± 0.1
[1]; i.p. 120 μg/mouse, within 48 hours after the first injection
  animals in the group died: 100% of the animals in the group died within 48 hours after the
[1]; i.v. 12.5 μg/mouse x7
  animals in the group alive: 100% of the animals in the group are alive. Locomotor activity is
[1]; i.v. 12.5 μg/mouse, day 0
  weight of experimental animals: 21.1 ± 0.4
[1]; i.v. 12.5 μg/mouse, day 2
  weight of experimental animals: 20.9 ± 0.3
[1]; i.v. 12.5 μg/mouse, day 4
  weight of experimental animals: 20.2 ± 0.5
[1]; i.v. 12.5 μg/mouse, day 8
  weight of experimental animals: 20.6 ± 0.9
[1]; i.v. 12.5 μg/mouse, day 11
  weight of experimental animals: 20.6 ± 1
[1]; i.v. 12.5 μg/mouse, day 15
  weight of experimental animals: 20.9 ± 0.9
[1]; i.v. 12.5 μg/mouse, day 19
  weight of experimental animals: 21 ± 0.7
[1]; i.v. 12.5 μg/mouse, day 24
  weight of experimental animals: 21.1 ± 0.8
[1]; i.v. 25 μg/mouse x7
  animals in the group alive: 100% of the animals in the group are alive. Locomotor activity is
[1]; i.v. 25 μg/mouse, day 0
  weight of experimental animals: 21.8 ± 0.3
[1]; i.v. 25 μg/mouse, day 2
  weight of experimental animals: 21.3 ± 0.5
[1]; i.v. 25 μg/mouse, day 4
  weight of experimental animals: 20.8 ± 0.5
[1]; i.v. 25 μg/mouse, day 8
  weight of experimental animals: 21.4 ± 0.5
[1]; i.v. 25 μg/mouse, day 11
  weight of experimental animals: 21.4 ± 0.5
[1]; i.v. 25 μg/mouse, day 15
  weight of experimental animals: 21.3 ± 0.6
[1]; i.v. 25 μg/mouse, day 19
  weight of experimental animals: 21.7 ± 0.4
[1]; i.v. 25 μg/mouse, day 24
  weight of experimental animals: 21.6 ± 0.5
[1]; i.v. 50 μg/mouse, within 10-20 minutes after the first injection
  animals in the group died: 100% of the animals in the group died within 10-20 minutes after
[1]; intraperitoneal
  maximum tolerated dose: 80 μg/mouse
[1]; intravenously
  maximum tolerated dose: 25 μg/mouse
[2]; after 5 injections
  suppression of growth of Ehrlich ascites carcinoma: 100%
[2]; day 7 after inoculation, 75 μg/mouse i.p. every other day x5
  Volume of ascites in mice: 0* points
[2]; day 9, 75 μg/mouse i.p. x5
  Volume of ascites in mice: 0** points
[2]; day 11, 75 μg/mouse i.p. x5
  Volume of ascites in mice: 0* points
[2]; day 13, 75 μg/mouse i.p.
  Number of dead cells/mouse: 0
  Number of live cells/mouse (M ± m): 0* cells/mouse
  Volume of ascites (M ± m): 0* ml/mouse
[2]; day 13, 75 μg/mouse i.p. x5
  Volume of ascites in mice: 0** points

## [39K+].[Cl-] [^39K]
[3]
  amount of N-cadherin-positive cells: in most cases increased
[3]; ^39K 2 and 0.5 mg/ml, ^64Zn 10 mcg/ml
  number of cells expressing ICAM: reduction in the number of cells
[3]; especially in high doses
  level of expression of CD44: tendency to decrease in the level of expression

## O=S(=O)([O-])[O-].[64Zn+2] [^64Zn]
[4]
  time of the gap closing: 72 h
